In patent publication US9718772B2, “Crystalline (3Z,5S)-5-(hydroxymethyl)-1-[(2′-methyl-1,1′-biphenyl-4-yl)carbonyl]pyrrolidin-3-one O-methyloxime, and methods of using the same” (ObsEva SA, priority 2014, dated 2017):
“Also recorded” adds a separate entry of the source.

Experiments:
Assay type in all cases: physicochemical
[1] = Comparative stability study: slurries stirred in pH 7 phosphate buffer (USP) at 25° C., observation and XRPD; details: in pH 7 phosphate buffer at 25° C., T = 5 min
[2] = Solid stress experiments (humidity, temperature, pressure, grinding, milling; XRPD)
Description: Solid stress experiments were conducted on crystalline (3Z,5S)-5-(hydroxymethyl)-1-[(2′-methyl-1,1′-biphenyl-4-yl)carbonyl]pyrrolidin-3-one O-methyloxime and amorphous (3Z,5S)-5-(hydroxymethyl)-1-[(2′-methyl-1,1′-biphenyl-4-yl)carbonyl]pyrrolidin-3-one O-methyloxime and the results shown below in Tables 8 and 9. […] Stressing at 97% RH for the same time caused the material to deliquesce.

[3] = MB (moisture balance) of the crystalline compound from ethyl acetate; details: crystallized from ethyl acetate
Description: Ethyl acetate was added to amorphous (3Z,5S)-5-(hydroxymethyl)-1-[(2′-methyl-1,1′-biphenyl-4-yl)carbonyl]pyrrolidin-3-one O-methyloxime. The suspension was sonicated in ambient bath tor 60 minutes to provide a clear solution that was further sonicated and cooled over 10 minutes. The clear solution was placed in the freezer for 4 days. The solvent was decanted and the solid was washed with hexane, then dried under nitrogen flow for 30 minutes. The resulting solid was analyzed by XRPD and confirmed to be crystalline (3Z,5S)-5-(hydroxymethyl)-1-[(2′-methyl-1,1′-biphenyl-4-yl)carbonyl]pyrrolidin-3-one O-methyloxime. FIGS. 7 and 9 are the DSC and TGA curves, respectively, obtained front testing this sample.

[4] = Comparative stability study: slurries stirred in pH 7 phosphate buffer (USP) at 25° C., observation and XRPD; details: for XRPD pattern of solids after stirring in pH 7 buffer: stirred 24 hours at 25° C., solids air dried overnight (FIG. 4, FIG. 5)
Description: Slurries of crystalline (3Z,5S)-5-(hydroxymethyl)-1-[(2′-methyl-1,1′-biphenyl-4-yl)carbonyl]pyrrolidin-3-one O-methyloxime and amorphous (3Z,5S)-5-(hydroxymethyl)-1-[(2′-methyl-1,1′-biphenyl-4-yl)carbonyl]pyrrolidin-3-one O-methyloxime were prepared by weighing directly into vials 100 mg of crystalline or amorphous material, About 3 mL of pH 7 phosphate buffer USP was added to each sample. Samples of each of the slurries were stirred in pH 7 phosphate buffer (USP) at 25° C. for 24 hours. At the end of 24 hours, the solvent was removed from the sample by pipetting out and solids allowed to air dry in the fumehood overnight. Solids were then submitted for XRPD analysis. Both the samples first appeared as white powders. Pictures of the samples were taken at time points corresponding to 0.5 min, 15 min, 1 hour, 3 hours and 24 hours after adding the pH 7 phosphate buffer.

[5] = Vacuum-drying of the crystalline compound, XRPD comparison (FIG. 2); details: vacuum-drying at about 45° C. for about 65 hours; crystallized from diethyl ether
Description: “After crystallization” means after preparation of the solid and drying at ambient temperature to about 45° C.
23 mg of the solid was then further vacuum-dried at 45° C. for an additional 65 hours. The resulting solid was analyzed by XRPD and confirmed to be the crystalline compound.

[6] = 75% RH, amorphous starting material
[7] = 10,000 psi, 1 minute, crystallized from Diethyl Ether
[8] = Ether stress, solid in solvent at ambient, 3 days (slurry)

In the case of CO/N=C1/C[C@@H](CO)N(C(=O)c2ccc(-c3ccccc3C)cc2)C1 [(3Z,5S)-5-(hydroxymethyl)-1-[(2′-methyl-1,1′-biphenyl-4-yl)carbonyl]pyrrolidin-3-one O-methyloxime], the Observation of sample ([1]; listed as Amorphous form) is reported as “Thick white sticky mass”, the Observation of sample ([1]; listed as Crystalline compound) is reported as “White powder dispersed” and the Habit/Description ([2]; 40° C., 10 days) is reported as “Rounded chunks”. For the same molecule, the “XRPD Result” value ([2]; 40° C., 10 days) was “Amorphous”, the Habit/Description ([2]; 40° C./75% RH, 1 day) was “Oil drops” and the “XRPD Result” value ([2]; 1 minute grind (by hand), crystallized from Diethyl Ether) was “mixture of the crystalline compound and the amorphous compound; also recorded: Crystalline form”. For the same molecule, the Habit/Description ([2]; 1 minute grind, crystallized from Diethyl Ether) was “White Solid”, the Habit/Description ([2]; 70° C., 1 day) was “Oil puddle” and the Habit/Description ([2]; 70° C., 6 days) was “Rounded chunks, clear oil drops”. The “XRPD Result” value ([2]; 70° C., 6 days) was “Amorphous”, the “XRPD Result” value ([2]; 75% RH, 3 days, crystallized from Ethyl Acetate) was “remained unchanged; also recorded: Crystalline form” and the weight gain ([2]; 75% RH, after 1 day) was 2.5% weight gain after 1 day. The weight gain ([2]; 75% RH, after 5 days) was 3.7% weight gain after 5 days, the weight gain ([2]; 75% RH, after 12 days) was 6.6% weight gain after 12 days and the weight gain ([2]; 75% RH, after 20 days) was 2.9% weight gain after 20 days. For the same molecule, the Habit/Description [2, 6] was “White jagged flakes, chunks, no”, the “XRPD Result” value [2, 6] was “Amorphous” and the Habit/Description ([2]; 97% RH, 3 days, amorphous starting material) was “Deliquesced”. For the same molecule, the Habit/Description ([2]; 97% RH, 3 days, crystallized from Ethyl Acetate) was “Deliquesced”, the Habit/Description [2, 7] was “White Solid” and the “XRPD Result” value [2, 7] was “remained in crystalline form”. For the same molecule, the Habit/Description [2, 8] was “White chunks, bits”, the “XRPD Result” value [2, 8] was “Amorphous” and the Habit/Description ([2]; Milling with 10μL toluene, after 10 minutes) was “Stick gum like solid after 10”. For the same molecule, the Habit/Description ([2]; Milling with 10μL toluene, by 70 minutes) was “minutes, sticky film by 70 minutes”, the Habit/Description ([2]; Milling with 25 μL water, ~10 minutes) was “Sticky gum-like solid” and the Habit/Description ([2]; Solid wet with ethyl ether, after 1 day at ambient) was “Chunks, few areas of birefringence”. The Habit/Description ([2]; Solid wet with ethyl ether, after 5 days ambient) was “Chunks, few areas with extinguish”, the “weight gain from 5% RH to 95% RH” value ([3]; MB (moisture balance)) was 3.25% weight gain from 5% RH to 95% RH and the “weight loss from 95% RH to 5% RH” value ([3]; MB (moisture balance)) was 1.44% weight loss from 95% RH to 5% RH. For the same molecule, the “weight loss upon equilibration at 5% RH” value ([3]; MB (moisture balance)) was 0.20% weight loss upon equilibration at 5% RH, the “Post MB XRPD” value ([3]; after moisture balance) was “Crystalline form and Amorphous” and the Observation of sample ([4]; Before adding buffer, listed as Amorphous form) was “White power”. The Observation of sample ([4]; Before adding buffer, listed as Crystalline compound) was “White powder”, the Observation of sample ([4]; in pH 7 phosphate buffer at 25° C., T = 0, listed as Crystalline compound) was “White powder dispersed” and the Observation of sample ([4]; in pH 7 phosphate buffer at 25° C., T = 15 min, listed as Amorphous (3Z,5S)-5-(hydroxymethyl)-1-[(2-methyl-1,1′-biphenyl-4-yl)carbonyl]pyr) was “opaque sticky material”. For the same molecule, the Observation of sample ([4]; in pH 7 phosphate buffer at 25° C., T = 15 min, listed as Amorphous form) was “Opaque sticky round lump”, the Observation of sample ([4]; in pH 7 phosphate buffer at 25° C., T = 15 min, listed as Crystalline compound) was “White powder dispersed” and the Observation of sample ([4]; in pH 7 phosphate buffer at 25° C., T = 1 hour, listed as Amorphous form) was “Opaque sticky round lump”. The Observation of sample ([4]; in pH 7 phosphate buffer at 25° C., T = 1 hour, listed as Crystalline compound) was “White solid round lump,”, the Observation of sample ([4]; in pH 7 phosphate buffer at 25° C., T = 1 hour, listed as crystalline (3Z,5S)-5-(hydroxymethyl)-1-[(2′-methyl-1,1-biphenyl-4-yl)carbonyl]p) was “white sticky material” and the Observation of sample ([4]; in pH 7 phosphate buffer at 25° C., T = 3 hours, listed as Amorphous form) was “Opaque sticky material”. The Observation of sample ([4]; in pH 7 phosphate buffer at 25° C., T = 3 hours, listed as Crystalline compound) was “White sticky material”, the Observation of sample ([4]; in pH 7 phosphate buffer at 25° C., T = 24 hours, listed as Amorphous form) was “Opaque sticky material” and the Observation of sample ([4]; in pH 7 phosphate buffer at 25° C., T = 24 hours, listed as Crystalline compound) was “White sticky material”. For the same molecule, the “XRPD pattern of solids after stirring in pH 7 buffer” value [4] was “peaks consistent with those seen in the powder pattern of crystalline”, the “XRPD pattern of solids after stirring in pH 7 buffer” value ([4]; listed as amorphous (3Z,5S)-5-(hydroxymethyl)-1-[(2-methyl-1,1′-biphenyl-4-yl)carbonyl]pyr) was “presence of amorphous phase” and the “solid form by XRPD after vacuum-drying” value [5] was “does not change the solid form”.
